Earlier results on two compounds are cited in patent US7981649B2 (priority 2001, dated 2011).

For this data set, the system named is human hepatocyte and neuroblastoma cells.

In the case of `CCOP(=O)(OCC)Oc1ccc([N+](=O)[O-])cc1` [paraoxon], the “effect on cell metabolism” value is “opposite effects on hepatocyte and neuroblastoma cell metabolism”.

For `CCOP(=S)(OCC)Oc1ccc([N+](=O)[O-])cc1` [parathion], the “effect on cell metabolism” value is “opposite effects on hepatocyte and neuroblastoma cell metabolism”.
